Toxic doses and inconclusive results are not listed.
Tested on: BDF1 mice, P388 leukemia ip, median survival T/C
Experiment: NCI In Vivo Anticancer Drug Screen. Data for tumor model P388 Leukemia (intraperitoneal) in B6D2F1 (BDF1) mice
Details: endpoint: median survival time, higher = longer survival
Procedure, shortened: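 Read-out is survival of treated animals expressed relative to the vehicle group, as a T/C ratio.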

[1] = dose: 100.0 mg/kg/injection, schedule: Q04DX003 (ip), vehicle: saline with Tween-80
[2] = dose: 200.0 mg/kg/injection, schedule: Q04DX003 (ip), vehicle: saline with Tween-80
[3] = dose: 400.0 mg/kg/injection, schedule: Q04DX003 (ip), vehicle: saline with Tween-80
[4] = dose: 50.0 mg/kg/injection, schedule: Q01DX009 (ip), vehicle: saline with Tween-80
[5] = dose: 100.0 mg/kg/injection, schedule: Q01DX009 (ip), vehicle: saline with Tween-80
[6] = dose: 200.0 mg/kg/injection, schedule: Q01DX009 (ip), vehicle: saline with Tween-80
[7] = dose: 100.0 mg/kg/injection, schedule: Q01DX009 (ip), vehicle: saline
[8] = dose: 400.0 mg/kg/injection, schedule: Q01DX009 (ip), vehicle: saline

With `O=C(O)/C(Cc1cnc2ccccc2n1)=N\O` the T/C [1] was 95 % of control, the T/C [2] was 100 % of control and the T/C [3] was 91 % of control.

In the case of `C=CCN(CC=C)CCSC(=S)NCCOC`, the T/C [4] is reported as 95 % of control, the T/C [5] is reported as 100 % of control and the T/C [6] is reported as 95 % of control.

With `S=c1nc[nH]c2c1ncn2C1CCCC1` the T/C [5] was 104 % of control and the T/C [6] was 95 % of control.

In the case of `Nc1ccc(C(=O)Nc2ccc(Nc3ccncc3)cc2)c([N+](=O)[O-])c1`, the T/C (dose: 12.5 mg/kg/injection, schedule: Q01DX009 (ip), vehicle: saline) is reported as 97 % of control, the T/C (dose: 25.0 mg/kg/injection, schedule: Q01DX009 (ip), vehicle: saline) is reported as 97 % of control and the T/C (dose: 50.0 mg/kg/injection, schedule: Q01DX009 (ip), vehicle: saline) is reported as 119 % of control. For the same molecule, the T/C (dose: 50.0 mg/kg/injection, schedule: Q04DX003 (ip), vehicle: saline) was 94 % of control, the T/C (dose: 75.0 mg/kg/injection, schedule: Q01DX009 (ip), vehicle: saline) was 90 % of control and the T/C [7] was 108 % of control. The T/C (dose: 100.0 mg/kg/injection, schedule: Q04DX003 (ip), vehicle: saline) was 100 % of control, the T/C (dose: 200.0 mg/kg/injection, schedule: Q01DX009 (ip), vehicle: saline) was 111 % of control and the T/C (dose: 200.0 mg/kg/injection, schedule: Q04DX003 (ip), vehicle: saline) was 92 % of control. The T/C [8] was 111 % of control and the T/C (dose: 400.0 mg/kg/injection, schedule: Q04DX003 (ip), vehicle: saline) was 92 % of control.

For `OC(COc1cccc(C(F)(F)F)c1)CN1CCN(c2ccc(F)cc2)CC1` (configuration not stated), the T/C (dose: 25.0 mg/kg/injection, schedule: Q01DX009 (ip), vehicle: saline with Tween-80) was 96 % of control, the T/C [4] was 96 % of control and the T/C [5] was 118 % of control.

With `Cc1ccc(N2C(=O)CC(Sc3ccccc3N)C2=O)cc1Cl` (configuration not stated) the T/C [5] was 110 % of control, the T/C [1] was 95 % of control and the T/C [6] was 90 % of control. The T/C [2] was 109 % of control, the T/C (dose: 400.0 mg/kg/injection, schedule: Q01DX009 (ip), vehicle: saline with Tween-80) was 105 % of control and the T/C [3] was 109 % of control.

With `OCC12CCCCC1CC1(CC2)OCCO1` (configuration not stated) the T/C [7] was 92 % of control, the T/C [1] was 95 % of control and the T/C [2] was 90 % of control. For the same molecule, the T/C [8] was 96 % of control and the T/C [3] was 90 % of control.

With `O=C1C=CC(=Nc2ccc3c(c2)C(Br)c2ccccc2-3)O1` (configuration not stated) the T/C (dose: 2.25 mg/kg/injection, schedule: Q01DX009 (ip), vehicle: saline) was 100 % of control, the T/C (dose: 4.5 mg/kg/injection, schedule: Q01DX009 (ip), vehicle: saline) was 100 % of control and the T/C (dose: 9.0 mg/kg/injection, schedule: Q01DX009 (ip), vehicle: saline) was 100 % of control. The T/C (dose: 13.0 mg/kg/injection, schedule: Q01DX009 (ip), vehicle: saline) was 105 % of control, the T/C (dose: 20.0 mg/kg/injection, schedule: Q01DX009 (ip), vehicle: saline) was 100 % of control and the T/C (dose: 30.0 mg/kg/injection, schedule: Q01DX009 (ip), vehicle: saline) was 120 % of control. The T/C (dose: 95.0 mg/kg/injection, schedule: Q04DX003 (ip), vehicle: saline) was 109 % of control and the T/C (dose: 145.0 mg/kg/injection, schedule: Q04DX003 (ip), vehicle: saline) was 118 % of control.

`Nc1[nH]c(=S)[nH]c(=O)c1N` was tested, and the T/C (dose: 75.0 mg/kg/injection, schedule: Q01DX009 (ip), vehicle: Klucel (hydroxypropylcellulose) (HPC)) was 115 % of control, the T/C (dose: 100.0 mg/kg/injection, schedule: Q01DX001 (ip), vehicle: Klucel (hydroxypropylcellulose) (HPC)) was 95 % of control and the T/C (dose: 200.0 mg/kg/injection, schedule: Q01DX001 (ip), vehicle: Klucel (hydroxypropylcellulose) (HPC)) was 95 % of control.

With `O=S(=O)(OCCF)c1cc(Cl)c(Cl)cc1Cl` the T/C (dose: 50.0 mg/kg/injection, schedule: Q01DX005 (ip), vehicle: Klucel (hydroxypropylcellulose) (HPC)) was 113 % of control.

For `Cc1cc(N(CCOS(C)(=O)=O)CCOS(C)(=O)=O)ccc1C=O`, the T/C (dose: 12.5 mg/kg/injection, schedule: Q04DX003 (ip), vehicle: saline with Tween-80) was 231 % of control and the T/C (dose: 25.0 mg/kg/injection, schedule: Q04DX003 (ip), vehicle: saline with Tween-80) was 120 % of control.
